Experimental data reported in patent US20230101747A1 (Schrödinger, Inc., priority 2019, published 2023).

Assays:
[1] = molecular target: T1, Full length human CDC7 protein co-expressed with DBF4 (Homo sapiens, UniProt O00311); experiment: CDC7 kinase biochemical assay (ADP-Glo, PDKtide substrate); conditions: 0.1 nM CDC7/DBF4, 1 uM ATP, 10 uM PDKtide, 4 h; read-out: CDC7 ADP-Glo PDKtide IC50
T1 construct: Full length human CDC7 protein co-expressed with DBF4; purchased SignalChem (China)
Procedure, shortened: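 Full-length human CDC7 co-expressed with DBF4 (0.1 nM) incubated 4 h with 1 uM ATP and 10 uM PDKtide in 40 mM Tris pH 7.5, 20 mM MgCl2, 0.1 mg/ml BSA, 50 uM DTT. ADP formed read by ADP-Glo luminescence. % inhibition scaled between DMSO (high) and reference CDC7 inhibitor (low) controls.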

[2] = tested on: phosphorylation of MCM2 S53 (CDC7 substrate) in colo205 cells; experiment: Phosphorylated MCM2 MSD electrochemiluminescence assay; format: cell-based; conditions: Homo sapiens, COLO 205; colo205 cells, 20 h incubation; read-out: pMCM2-S53 MSD Colo205 IC50
Description: Phosphorylated MCM2 MSD Electrochemiluminescence Assay
The effect of CDC7 inhibitors on cellular phosphorylation of the CDC7 substrate MCM2 was determined using the following protocol:
A total of 40,000 colo205 cells in 100 uL culture medium (1640 medium+10% Fetal bovine serum+1% Penicillin-Streptomycin) were plated in 96-well cell culture plates and allowed to attach for 6 hours. 3-fold serial dilutions of test compounds were prepared in completed PBS at 25× final concentration and 4 uL of each were added to the cells and incubated for 20 hours at 37° C., 5% CO2. Each concentration was tested in duplicate. After the 20 h incubation, cells were washed with 150 uL PBS and lysed with 40 uL MSD lysis buffer (obtained from Meso Scale Diagnostics) supplied with 1× complete ULTRA cocktail inhibitor (obtained from Roche). To detect phosphorylation of MCM2 S53, 30 μL of capture antibody solution (obtained from Abnova, catalog number H00004171-M01, 1:500) was added to each well of MULTI-ARRAY 96-well High Bind Plate, and incubated overnight. The antibody solution was removed, wells blocked with BSA solution and plates washed, followed by addition of 30 ul of cell lysate per well. After 2 h incubation, plates were washed. 30 μL of 1× detection antibody solution (obtained from Abcam, catalog number ab109133, 1:1000) was then added to each well and incubate for 1 hour. Plates were washed and 30 μL of 1× secondary antibody solution (obtained from MSD, catalog number R32AB-1, 1:5000) was added to each well and incubate for 1 hour. Plates were washed and 150 μL of 1× Read Buffer T was added to each well of the MSD plate. The electrochemiluminescence signal was measured on a MESO SECTOR S600 plate reader. The percentage of remaining phosphorylated MCM2 signal was calculated following the equation below.
HC (high control): Cells treated with DMSO Cpds: Cells treated with test compounds LC (low control): Cells treated with positive control CDC7 inhibitor

T1 sequence (O00311 whole entry): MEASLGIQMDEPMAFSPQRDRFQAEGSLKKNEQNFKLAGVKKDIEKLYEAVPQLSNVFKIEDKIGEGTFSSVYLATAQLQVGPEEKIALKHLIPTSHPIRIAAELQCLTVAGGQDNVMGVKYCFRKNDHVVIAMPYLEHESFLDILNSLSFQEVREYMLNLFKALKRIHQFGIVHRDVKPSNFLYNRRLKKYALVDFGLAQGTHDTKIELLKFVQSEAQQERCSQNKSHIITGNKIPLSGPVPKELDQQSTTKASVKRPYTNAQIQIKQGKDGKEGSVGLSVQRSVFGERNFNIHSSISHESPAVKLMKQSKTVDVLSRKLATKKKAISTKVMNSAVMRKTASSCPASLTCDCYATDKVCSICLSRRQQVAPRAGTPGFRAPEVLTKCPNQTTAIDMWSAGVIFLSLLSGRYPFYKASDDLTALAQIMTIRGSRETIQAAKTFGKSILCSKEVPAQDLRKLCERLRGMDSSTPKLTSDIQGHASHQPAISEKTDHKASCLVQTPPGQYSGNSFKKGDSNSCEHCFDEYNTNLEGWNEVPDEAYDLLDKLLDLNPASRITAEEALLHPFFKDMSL
T1 sequence (Q9UBU7 whole entry partner): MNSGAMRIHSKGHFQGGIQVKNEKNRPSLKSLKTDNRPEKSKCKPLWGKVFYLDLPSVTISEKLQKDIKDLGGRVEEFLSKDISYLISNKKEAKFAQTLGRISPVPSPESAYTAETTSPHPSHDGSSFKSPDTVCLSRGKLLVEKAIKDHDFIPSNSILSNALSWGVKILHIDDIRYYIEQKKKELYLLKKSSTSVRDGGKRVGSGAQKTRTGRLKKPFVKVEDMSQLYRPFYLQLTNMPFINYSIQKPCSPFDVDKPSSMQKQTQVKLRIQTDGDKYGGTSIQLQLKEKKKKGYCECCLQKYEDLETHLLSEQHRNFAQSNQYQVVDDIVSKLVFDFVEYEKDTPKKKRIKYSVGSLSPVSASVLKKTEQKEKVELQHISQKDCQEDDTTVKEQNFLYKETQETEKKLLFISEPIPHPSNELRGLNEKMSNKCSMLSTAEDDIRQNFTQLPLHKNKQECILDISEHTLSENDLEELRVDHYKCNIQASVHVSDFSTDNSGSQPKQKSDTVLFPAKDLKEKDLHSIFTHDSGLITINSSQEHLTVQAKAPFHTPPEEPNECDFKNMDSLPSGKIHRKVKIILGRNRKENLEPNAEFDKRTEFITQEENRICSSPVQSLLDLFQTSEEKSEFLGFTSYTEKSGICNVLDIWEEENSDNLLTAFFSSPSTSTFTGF

CN1CC(F)(F)C[C@H]1[C@H]1CN2CC(F)(F)Cc3c(-c4cn[nH]c4)sc(c32)C(=O)N1 [Compound 136, (R)-7-((S)-4,4-difluoro-1-methylpyrrolidin-2-yl)-4,4-difluoro-2-(1H-pyrazol-4-yl)-4,5,7,8-tetrahydro-3H-1-thia-5a,8-diazabenzo[cd]azulen-9(6H)-one]
IC50 [1]: < 0.001 µM
IC50 [2]: 0.016 µM

CC(C)(O)C[C@@H]1CNC(=O)c2sc(-c3cn[nH]c3)c3c2N1CCO3 [Compound 104, (R)-6-(2-hydroxy-2-methylpropyl)-2-(1H-pyrazol-4-yl)-4,5,7,8-tetrahydro-3-oxa-1-thia-5a,8-diazabenzo[cd]azulen-9(6H)-one]
IC50 [1]: < 0.001 µM
IC50 [2]: 0.15 µM

COC[C@H]1CN2CC(F)(F)Cc3c(-c4cn[nH]c4)sc(c32)C(=O)N1 [Compound 103, (10R)-6,6-difluoro-10-(methoxymethyl)-3-(1H-pyrazol-4-yl)-2-thia-8,11-diazatricyclo [6.4.1.0^4,13]trideca-1(13),3-dien-12-one]
IC50 [1]: < 0.001 µM
IC50 [2]: 0.015 µM
